Experimental findings from PubChem BioAssay (NCI) are described below.

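How tested: cells in 96-well plates exposed to compound for 48 hours at five concentrations. At the GI50, growth is halved. TGI is the concentration that stops growth completely.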

Test systems include CAKI-1 renal; HT29 colon; SK-MEL-2 melanoma; BT-549 breast; SNB-19 CNS; OVCAR-5 ovarian; SF-268 CNS; K-562 leukemia; MDA-MB-231 breast; HCT-15 colon.
What all share (experiment): NCI anticancer screen, dose series, 48 h

On to `Nc1ncnc2c1ccn2C/C=C\CO`, for which the TGI with CAKI-1 renal, with HT29 colon, with SK-MEL-2 melanoma, in the assay with BT-549 breast, in the assay with SNB-19 CNS and in the assay with OVCAR-5 ovarian was more than 100 µM in each case. In addition, the TGI in the assay with SF-268 CNS, with K-562 leukemia, with MDA-MB-231 breast and in the assay with HCT-15 colon was more than 100 µM throughout.

Turning to `O=C(O)CC(CC(=O)O)C(=O)O`, the TGI with CAKI-1 renal, in the assay with HT29 colon, in the assay on SK-MEL-2 melanoma, in the assay with BT-549 breast, in the assay with SNB-19 CNS and with OVCAR-5 ovarian was more than 100 µM in each case. Also, the TGI in the assay on SF-268 CNS, with K-562 leukemia, with MDA-MB-231 breast and in the assay on HCT-15 colon was more than 100 µM throughout.

For `Oc1cn(-c2ccc(Cl)cc2)nc1-c1nnc(-c2ccccc2)o1`, the TGI with CAKI-1 renal is 11.1 µM; in the assay on HT29 colon, 27.6 µM; in the assay with SK-MEL-2 melanoma, more than 71.3 µM; with BT-549 breast it was more than 91.9 µM; in the assay with SNB-19 CNS, more than 68.5 µM; in the assay on OVCAR-5 ovarian, 39.3 µM. The TGI in the assay on SF-268 CNS turned out to be 17.9 µM; in the assay on K-562 leukemia it was 19.6 µM; in the assay on MDA-MB-231 breast, 36.1 µM; in the assay with HCT-15 colon it was 27.2 µM. Besides, in the assay with BT-549 breast, the GI50 was 4.24 µM.

Turning to `CC1(c2cccs2)CC(c2cccs2)=C(C#N)C(=C(C#N)C#N)N1` (stereo not given), the TGI in the assay with CAKI-1 renal turned out to be 37 µM; in the assay with HT29 colon, 34.4 µM; in the assay on SK-MEL-2 melanoma it was 37.4 µM; in the assay with BT-549 breast, 57.5 µM; with SNB-19 CNS, 36.6 µM; with OVCAR-5 ovarian, 39.3 µM. For the same compound, the TGI in the assay on SF-268 CNS was 35.9 µM; with K-562 leukemia, more than 100 µM; with MDA-MB-231 breast, 50.6 µM; in the assay with HCT-15 colon, 33.8 µM.

Take `COc1cc(C2SCC(=O)N2c2ccccn2)cc(OC)c1OC` (stereo not given): the TGI in the assay with CAKI-1 renal, with HT29 colon, in the assay with SK-MEL-2 melanoma, in the assay with BT-549 breast, with SNB-19 CNS and in the assay on OVCAR-5 ovarian was more than 100 µM in each case. The TGI in the assay on SF-268 CNS, in the assay with K-562 leukemia, with MDA-MB-231 breast and with HCT-15 colon was more than 100 µM each time.

In the case of `COc1cc(/C=C2\C[C@H]3[C@@H]4CCc5cc(O)ccc5[C@H]4CC[C@]3(C)C2=O)cc(OC)c1OC`, the TGI with CAKI-1 renal was determined as 26.6 µM; with HT29 colon, 25 µM; in the assay on SK-MEL-2 melanoma, 31.9 µM; in the assay with BT-549 breast, 42.6 µM; in the assay with SNB-19 CNS, 47.1 µM; with OVCAR-5 ovarian, 38.6 µM. Besides, the TGI in the assay on SF-268 CNS was 24 µM; in the assay on K-562 leukemia, 24.8 µM; in the assay on MDA-MB-231 breast it was 43.9 µM; in the assay on HCT-15 colon, more than 100 µM.

With `O=c1cnn(C/C=C/CBr)c(=O)[nH]1`, the TGI in the assay on CAKI-1 renal is 25.6 µM; with HT29 colon it was 29.2 µM; in the assay with SK-MEL-2 melanoma it was 42.2 µM; with BT-549 breast, 19.4 µM; in the assay on SNB-19 CNS, 79.7 µM; in the assay on OVCAR-5 ovarian, 31.2 µM. Besides, the TGI with SF-268 CNS was determined as 39.3 µM; in the assay with K-562 leukemia, 70.6 µM; with MDA-MB-231 breast, 45.6 µM; in the assay with HCT-15 colon, 39.2 µM.

In the case of `CCCC[C@@H]1CCN2C[C@@H](O)[C@@H](O)[C@@H]2[C@H]1O`, the TGI in the assay with CAKI-1 renal, in the assay with HT29 colon, in the assay on SK-MEL-2 melanoma, with BT-549 breast, with SNB-19 CNS and in the assay on OVCAR-5 ovarian was more than 100 µM each time. Further, the TGI in the assay with SF-268 CNS, in the assay on K-562 leukemia, with MDA-MB-231 breast and in the assay with HCT-15 colon was more than 100 µM each time.

On to `CN(Cc1cnc2nc(N)nc(N)c2n1)c1ccc(C(=O)NC(CCC(=O)NCCC(P(=O)(O)O)P(=O)(O)O)C(=O)O)cc1` (stereo not given), for which the TGI in the assay with CAKI-1 renal, with HT29 colon, in the assay on SK-MEL-2 melanoma, with BT-549 breast, with SNB-19 CNS and in the assay on OVCAR-5 ovarian was more than 100 µM throughout. Also, the TGI in the assay with SF-268 CNS, in the assay on K-562 leukemia, with MDA-MB-231 breast and in the assay with HCT-15 colon was more than 100 µM each time.

Regarding `O=c1cnn(C2OC(C(O)CO)C(O)C2O)c(=O)[nH]1` (stereo not given), the TGI in the assay on CAKI-1 renal, in the assay on HT29 colon, in the assay with SK-MEL-2 melanoma, in the assay with BT-549 breast, in the assay with SNB-19 CNS and in the assay with OVCAR-5 ovarian was more than 100 µM in each case. In addition, the TGI with SF-268 CNS, in the assay with K-562 leukemia, in the assay with MDA-MB-231 breast and in the assay on HCT-15 colon was more than 100 µM in each case.

For `O=C1NC(NNc2ccccc2)=N/C1=C\c1ccccc1O`, the TGI with CAKI-1 renal, in the assay on HT29 colon, in the assay on SK-MEL-2 melanoma, in the assay with BT-549 breast, in the assay on SNB-19 CNS and in the assay on OVCAR-5 ovarian was more than 100 µM each time. Also, the TGI with SF-268 CNS, in the assay with K-562 leukemia, in the assay on MDA-MB-231 breast and in the assay with HCT-15 colon was more than 100 µM in each case.

Consider `CCCC(=O)n1[nH]c(=O)n(-c2ccc(Cl)cc2)c1=O`, for which the TGI with CAKI-1 renal, in the assay on HT29 colon, in the assay with SK-MEL-2 melanoma, in the assay with BT-549 breast, with SNB-19 CNS and in the assay with OVCAR-5 ovarian was more than 100 µM throughout. Besides, the TGI in the assay on SF-268 CNS, with K-562 leukemia, with MDA-MB-231 breast and in the assay on HCT-15 colon was more than 100 µM in each case.

On to `CNc1ccc(C(=O)CC(O)CCC(C)C2OC(=O)CC(O)CC(=O)CC(O)CC(O)CC(O)CC(O)CC3(O)CC(O)C(C(=O)NCCN(C)C)C(CC(OC4OC(C)C(O)C(NC(=O)CN5CCN(C)CC5)C4O)/C=C/C=C/C=C/C=C\C=C/C=C/C=C/C2C)O3)cc1` (stereo not given), for which the TGI in the assay on CAKI-1 renal is more than 100 µM; in the assay on HT29 colon, 9.92 µM; in the assay with SK-MEL-2 melanoma, more than 100 µM; in the assay on BT-549 breast, more than 100 µM; in the assay on OVCAR-5 ovarian it was more than 100 µM; in the assay with SF-268 CNS, more than 100 µM. The TGI in the assay with K-562 leukemia, with MDA-MB-231 breast and in the assay on HCT-15 colon was more than 100 µM each time.
